Source: patent US20220402984A1, “LYSIN-ANTIMICROBIAL PEPTIDE (AMP) POLYPEPTIDE CONSTRUCTS, LYSINS, ISOLATED POLYNUCLEOTIDES ENCODING SAME AND USES THEREOF” (priority 2018, published 2022)
Where two headings read alike, the source gives them in different places.

How the values were obtained:
[1] = system: Staphylococcus aureus; test: Daptomycin MIC in […] (positive control); assay type: cell-based; settings: S. aureus
Method: As a positive control, the impact of […] ® on daptomycin (DAP) activity against Staphylococcus aureus was also tested.

[2] = system: carbapenem-resistant P. aeruginosa strains; assay type: cell-based, Pseudomonas aeruginosa
Method: Such resensitization may be determined by combining the present lysins or lysin-AMP polypeptide constructs with an antibiotic in a checkerboard assay as described herein. Antibiotic-resistant bacteria, such as carbapenem-resistant P. aeruginosa, are added to the lysin or lysin-AMP polypeptide construct combination. […] See Clinical and Laboratory Standards Institute (CLSI), CLSI. […] M100 Performance Standards for Antimicrobial Susceptibility Testing; 29th Edition. Clinical and Laboratory Standards Institute, Wayne, Pa., which is herein incorporated by reference in its entirety.
Up to seven carbapenem-resistant isolates were assessed. […] See Clinical and Laboratory Standards Institute (CLSI), CLSI. […] M100 Performance Standards for Antimicrobial Susceptibility Testing; 29th Edition. Clinical and Laboratory Standards Institute, Wayne, Pa.

[3] = system: P. aeruginosa isolate CFS 1558 (PA20); test: Rabbit pulmonary model establishment: inoculum and meropenem static dose; assay type: in vivo; settings: for Bacterial Burden, Kidneys / Bacterial Burden, Lung 1 / Bacterial Burden, Lung 2 / Bacterial Burden, Spleen: sacrificed 18-24 hours after last dose
Source text: 3×10^9 CFU of the P. aeruginosa isolate was used to challenge the rabbits during the efficacy study described below.

[4] = system: P. aeruginosa (strain WC-452); test: 21-day serial passage resistance assay; assay type: cell-based, Pseudomonas aeruginosa; settings: over 18 days
Method: […]. An analysis of bacterial resistance was performed using P. aeruginosa (strain WC-452) over 21 days of serial passage in the presence of a GN-lysin dilution series (in duplicate). […] The well with the highest concentration of GN lysin in which bacterial growth was seen was then used as the inoculum for the next day's passage, and the process was repeated over a 21 day period. The MIC at each daily time-point was recorded, and resistance was measured as a step-wise increase in MIC.

[5] = Meropenem 10 mg/kg, three times a day subcutaneous for two days
[6] = Meropenem 20 mg/kg, three times a day subcutaneous for two days
[7] = Meropenem 30 mg/kg, three times a day subcutaneous for two days
[8] = Meropenem 40 mg/kg, three times a day subcutaneous for two days

daptomycin
fold increase in MIC ([1]; 0.09% SURVANTA): 32 | fold increase in MIC ([1]; 0.19% SURVANTA): 32 | fold increase in MIC ([1]; 1.56% SURVANTA): 128 | fold increase in MIC ([1]; 3.15% SURVANTA): 128

C[C@@H](O)[C@H]1C(=O)N2C(C(=O)O)=C(S[C@@H]3CN[C@H](C(=O)N(C)C)C3)[C@H](C)[C@H]12 [Meropenem, meropenem]
Antibiotic MIC Alone ([2]; MEM + GN351 vs. WC-452): 16 (R) | Antibiotic MIC Alone ([2]; MEM + GN370 vs. WC-452): 16 (R) | Antibiotic MIC Alone ([2]; MEM + GN428 vs. WC-452): 16 (R) | Bacterial Burden, Kidneys [3, 5]: 4.36 ± 0.43 log10 CFU/g | Bacterial Burden, Lung 1 [3, 5]: 7.39 ± 0.34 log10 CFU/g | Bacterial Burden, Lung 2 [3, 5]: 7.42 ± 0.64 log10 CFU/g | Bacterial Burden, Spleen [3, 5]: 4.01 ± 0.10 log10 CFU/g | Bacterial Burden, Kidneys [3, 6]: 4.51 ± 0.73 log10 CFU/g | Bacterial Burden, Lung 1 [3, 6]: 6.85 ± 1.09 log10 CFU/g | Bacterial Burden, Lung 2 [3, 6]: 6.97 ± 1.19 log10 CFU/g | Bacterial Burden, Spleen [3, 6]: 4.74 ± 0.57 log10 CFU/g | Bacterial Burden, Kidneys ([3]; Meropenem 25 mg/kg): 2.06 ± 0.58 log10 CFU/g | Bacterial Burden, Lung 1 ([3]; Meropenem 25 mg/kg): 4.55 ± 1.65 log10 CFU/g | Bacterial Burden, Lung 2 ([3]; Meropenem 25 mg/kg): 3.73 ± 1.03 log10 CFU/g | Bacterial Burden, Spleen ([3]; Meropenem 25 mg/kg): 2.15 ± 0.78 log10 CFU/g | Bacterial Burden, Kidneys [3, 7]: 2.24 ± 0.64 log10 CFU/g | Bacterial Burden, Lung 1 [3, 7]: 4.83 ± 1.19 log10 CFU/g | Bacterial Burden, Lung 2 [3, 7]: 4.42 ± 1.14 log10 CFU/g | Bacterial Burden, Spleen [3, 7]: 1.97 ± 0.63 log10 CFU/g | Bacterial Burden, Kidneys [3, 8]: 2.34 ± 0.65 log10 CFU/g | Bacterial Burden, Lung 1 [3, 8]: 4.66 ± 0.11 log10 CFU/g | Bacterial Burden, Lung 2 [3, 8]: 2.95 ± 1.19 log10 CFU/g | Bacterial Burden, Spleen [3, 8]: 1.93 ± 0.47 log10 CFU/g | meropenem dosage establishing a static effect ([3]; three times a day, subcutaneous, two days, rabbits): 20 mg/kg

O=C(O)c1cn(C2CC2)c2cc(N3CCNCC3)c(F)cc2c1=O [Ciprofloxacin]
increase in MIC during serial passage [4]: 16 fold

C[C@@H](O)[C@H]1C(=O)N2C(C(=O)O)=C(SCCN=CN)C[C@H]12 [Imipenem, imipenem]
Antibiotic MIC Alone ([2]; IPM + GN351 vs. WC-452): 16 (R) | Antibiotic MIC Alone ([2]; IPM + GN370 vs. WC-452): 16 (R) | Antibiotic MIC Alone ([2]; IPM + GN428 vs. WC-452): 16 (R)
